In patent publication US20080193986A1, “Mutant strain of Amycolatopsis orientalis and process for preparing vancomycin hydrochloride” (priority 2007, published 2008):
Structures can show the parent of a compound that is named as a salt.

Key:
[1] = Solubility of dried powder; format: physicochemical; settings: dried vancomycin hydrochloride of Example 9
Experimental: (§1) Next, chilled absolute ethanol was added to the concentrate drop by drop until vancomycin hydrochloride was crystallized, the slurry was left in refrigerator for 12 hours to accelerate the crystallization, and then the slurry was filtered off. The filtered precipitate was dried in a vacuum dryer at 40° C. […] The analytical results are illustrated in FIG. 3 and FIG. 4.

[2] = Antimicrobial activity by analysis based on U.S. Pharmacopeia 28; settings: dried vancomycin hydrochloride of Example 9
Experimental: as §1

SMILES: CN[C@H](CC(C)C)C(=O)N[C@H]1C(=O)N[C@@H](CC(N)=O)C(=O)N[C@H]2C(=O)N[C@H]3C(=O)N[C@H](C(=O)N[C@H](C(=O)O)c4cc(O)cc(O)c4-c4cc3ccc4O)[C@H](O)c3ccc(c(Cl)c3)Oc3cc2cc(c3O[C@@H]2O[C@H](CO)[C@@H](O)[C@H](O)[C@H]2O[C@H]2C[C@](C)(N)[C@H](O)[C@H](C)O2)Oc2ccc(cc2Cl)[C@H]1O [vancomycin hydrochloride]
- solubility of powder [1]: freely soluble
- antimicrobial activity [2]: 1050 U
